Data taken from EP0584797A2, “Novel cephalosporin compounds and processes for the preparation thereof” (LUCKY LTD., priority 1992, dated 1994).
Converted amounts (≈) assume the structure as drawn.

Tests used:
Assay in all cases: minimal inhibitory concentration, two-fold agar dilution
Assay type in all cases: cell-based
[1] = tested on: Acinetobacter calcoaceticus ATCC 15437; conditions: ATCC15437, Muller-Hinton agar, 37°C, 20 hours, read-out: MIC values against the standard strains
How it was run: (§1)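 Compounds were serially diluted two-fold into Mueller-Hinton agar, and each plate was spot-inoculated with the test strain at 10⁷ CFU per ml. Plates were incubated at 37°C for 20 hours before MIC values were read.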

[2] = tested on: Bacillus cereus ATCC 11778; conditions: ATCC11778, Muller-Hinton agar, 37°C, 20 hours, read-out: MIC values against the standard strains
How it was run: as §1

[3] = tested on: Bacillus megaterium ATCC 9885; conditions: Priestia megaterium, ATCC9885; Muller-Hinton agar; 37°C; 20 hours; read-out: MIC values against the standard strains
How it was run: as §1

[4] = tested on: Citrobacter freundii ATCC 8090; conditions: ATCC8090, Muller-Hinton agar, 37°C, 20 hours, read-out: MIC values against the standard strains
How it was run: as §1

[5] = tested on: Enterobacter aerogenes ATCC 29751; conditions: Klebsiella aerogenes, ATCC29751; Muller-Hinton agar; 37°C; 20 hours; read-out: MIC values against the standard strains
How it was run: as §1

[6] = tested on: Enterobacter cloacae ATCC 27508; conditions: ATCC27508, Muller-Hinton agar, 37°C, 20 hours, read-out: MIC values against the standard strains
How it was run: as §1

[7] = tested on: Escherichia coli ATCC 10536; conditions: ATCC10536, Muller-Hinton agar, 37°C, 20 hours, read-out: MIC values against the standard strains
How it was run: as §1

[8] = tested on: Escherichia coli ATCC 25922; conditions: ATCC25922, Muller-Hinton agar, 37°C, 20 hours, read-out: MIC values against the standard strains
How it was run: as §1

[9] = tested on: Klebsiella pneumoniae ATCC 10031; conditions: ATCC10031, Muller-Hinton agar, 37°C, 20 hours, read-out: MIC values against the standard strains
How it was run: as §1

[10] = tested on: Micrococcus luteus ATCC 9341; conditions: ATCC9341, Muller-Hinton agar, 37°C, 20 hours, read-out: MIC values against the standard strains
How it was run: as §1

[11] = tested on: Morganella morganii ATCC 8076h; conditions: ATCC8076H, Muller-Hinton agar, 37°C, 20 hours, read-out: MIC values against the standard strains
How it was run: as §1

[12] = tested on: Proteus mirabilis ATCC 25933; conditions: ATCC25933, Muller-Hinton agar, 37°C, 20 hours, read-out: MIC values against the standard strains
How it was run: as §1

[13] = tested on: Proteus vulgaris ATCC 6059; conditions: ATCC6059, Muller-Hinton agar, 37°C, 20 hours, read-out: MIC values against the standard strains
How it was run: as §1

[14] = tested on: Providencia rettgeri ATCC 9250; conditions: ATCC9250, Muller-Hinton agar, 37°C, 20 hours, read-out: MIC values against the standard strains
How it was run: as §1

[15] = tested on: Pseudomonas aeruginosa ATCC 10145; conditions: ATCC10145, Muller-Hinton agar, 37°C, 20 hours, read-out: MIC values against the standard strains
How it was run: as §1

[16] = tested on: Pseudomonas aeruginosa ATCC 25619; conditions: ATCC25619, Muller-Hinton agar, 37°C, 20 hours, read-out: MIC values against the standard strains
How it was run: as §1

[17] = tested on: Pseudomonas aeruginosa ATCC 27853; conditions: ATCC27853, Muller-Hinton agar, 37°C, 20 hours, read-out: MIC values against the standard strains
How it was run: as §1

[18] = tested on: Salmonella typhimurium ATCC 14028; conditions: Salmonella enterica; Muller-Hinton agar; 37°C; 20 hours; read-out: MIC values against the standard strains
How it was run: as §1

[19] = tested on: Serratia marcescens ATCC 27117; conditions: ATCC27117, Muller-Hinton agar, 37°C, 20 hours, read-out: MIC values against the standard strains
How it was run: as §1

[20] = tested on: Shigella flexneri ATCC 11836; conditions: ATCC11836, Muller-Hinton agar, 37°C, 20 hours, read-out: MIC values against the standard strains
How it was run: as §1

[21] = tested on: Shigella sonnei ATCC 11060; conditions: ATCC11060, Muller-Hinton agar, 37°C, 20 hours, read-out: MIC values against the standard strains
How it was run: as §1

[22] = tested on: Staphylococcus aureus ATCC 10537; conditions: ATCC10537, Muller-Hinton agar, 37°C, 20 hours, read-out: MIC values against the standard strains
How it was run: as §1

[23] = tested on: Staphylococcus aureus ATCC 6538p; conditions: ATCC6538P, Muller-Hinton agar, 37°C, 20 hours, read-out: MIC values against the standard strains
How it was run: as §1

[24] = tested on: Staphylococcus epidermidis ATCC 12228; conditions: ATCC12228, Muller-Hinton agar, 37°C, 20 hours, read-out: MIC values against the standard strains
How it was run: as §1

[25] = tested on: Streptococcus faecalis ATCC 29212; conditions: Enterococcus faecalis, ATCC29212; Muller-Hinton agar; 37°C; 20 hours; read-out: MIC values against the standard strains
How it was run: as §1

CC[n+]1c(SCC2=C(C(=O)[O-])N3C(=O)[C@@H](NC(=O)/C(=N\OC(C)(C)C(=O)O)c4csc(N)n4)[C@H]3SC2)nc(N)c(N)c1N [Example 11, 7-[(Z)-2-(2-aminothiazol-4-yl)-2-(carboxyprop-2-oxyimino)acetamido]-3-(4,5,6-triamino-1-ethylpyrimidinium-2-yl)thiomethyl-3-cephem-4-carboxylate]
MIC [1]: 8 µg/mL (≈ 12.3 µM) | MIC [2]: 128 µg/mL (≈ 196 µM) | MIC [3]: 0.13 µg/mL (≈ 0.199 µM) | MIC [4]: 0.13 µg/mL (≈ 0.199 µM) | MIC [5]: 2 µg/mL (≈ 3.06 µM) | MIC [6]: 0.031 µg/mL (≈ 0.0475 µM) | MIC [7]: 0.031 µg/mL (≈ 0.0475 µM) | MIC [8]: 0.063 µg/mL (≈ 0.0965 µM) | MIC [9]: 0.063 µg/mL (≈ 0.0965 µM) | MIC [10]: 0.13 µg/mL (≈ 0.199 µM) | MIC [11]: ≤ 0.008 µg/mL | MIC [12]: 0.25 µg/mL (≈ 0.383 µM) | MIC [13]: 0.25 µg/mL (≈ 0.383 µM) | MIC [14]: 0.063 µg/mL (≈ 0.0965 µM) | MIC [15]: 8 µg/mL (≈ 12.3 µM) | MIC [16]: 2 µg/mL (≈ 3.06 µM) | MIC [17]: 4 µg/mL (≈ 6.13 µM) | MIC [18]: 1 µg/mL (≈ 1.53 µM) | MIC [19]: 1 µg/mL (≈ 1.53 µM) | MIC [20]: 0.063 µg/mL (≈ 0.0965 µM) | MIC [21]: 1 µg/mL (≈ 1.53 µM) | MIC [22]: 2 µg/mL (≈ 3.06 µM) | MIC [23]: 4 µg/mL (≈ 6.13 µM) | MIC [24]: 2 µg/mL (≈ 3.06 µM) | MIC [25]: > 128 µg/mL

C[n+]1c(SCC2=C(C(=O)[O-])N3C(=O)[C@@H](NC(=O)/C(=N\OC(C)(C)C(=O)O)c4csc(N)n4)[C@H]3SC2)nc(N)c(N)c1N [Example 1]
MIC [1]: 8 µg/mL (≈ 12.5 µM) | MIC [2]: 128 µg/mL (≈ 200 µM) | MIC [3]: 0.25 µg/mL (≈ 0.391 µM) | MIC [4]: 0.13 µg/mL (≈ 0.204 µM) | MIC [5]: 2 µg/mL (≈ 3.13 µM) | MIC [6]: 0.016 µg/mL (≈ 0.0251 µM) | MIC [7]: 0.13 µg/mL (≈ 0.204 µM) | MIC [8]: 0.063 µg/mL (≈ 0.0986 µM) | MIC [9]: 0.063 µg/mL (≈ 0.0986 µM) | MIC [10]: 0.25 µg/mL (≈ 0.391 µM) | MIC [11]: ≤ 0.008 µg/mL | MIC [12]: 0.063 µg/mL (≈ 0.0986 µM) | MIC [13]: 0.063 µg/mL (≈ 0.0986 µM) | MIC [14]: ≤ 0.008 µg/mL | MIC [15]: 2 µg/mL (≈ 3.13 µM) | MIC [16]: 1 µg/mL (≈ 1.57 µM) | MIC [17]: 1 µg/mL (≈ 1.57 µM) | MIC [18]: 0.25 µg/mL (≈ 0.391 µM) | MIC [19]: 0.25 µg/mL (≈ 0.391 µM) | MIC [20]: 0.031 µg/mL (≈ 0.0485 µM) | MIC [21]: 0.13 µg/mL (≈ 0.204 µM) | MIC [22]: 2 µg/mL (≈ 3.13 µM) | MIC [23]: 8 µg/mL (≈ 12.5 µM) | MIC [24]: 2 µg/mL (≈ 3.13 µM) | MIC [25]: > 128 µg/mL

CCO/N=C(\C(=O)N[C@@H]1C(=O)N2C(C(=O)[O-])=C(CSc3nc(N)cc[n+]3C)CS[C@H]12)c1csc(N)n1 [Example 4, 7-[(Z)-2-(aminothiazol-4-yl)-2-(ethoxyimino)acetamido]-3-(4-amino-1-methylpyrimidinium-2-yl)thiomethyl-3-cephem-4-carboxylate]
MIC [1]: 8 µg/mL (≈ 14.5 µM) | MIC [2]: 32 µg/mL (≈ 58.1 µM) | MIC [3]: 0.13 µg/mL (≈ 0.236 µM) | MIC [4]: 0.063 µg/mL (≈ 0.114 µM) | MIC [5]: 0.25 µg/mL (≈ 0.454 µM) | MIC [6]: ≤ 0.008 µg/mL | MIC [7]: 0.063 µg/mL (≈ 0.114 µM) | MIC [8]: 0.063 µg/mL (≈ 0.114 µM) | MIC [9]: ≤ 0.008 µg/mL | MIC [10]: 0.063 µg/mL (≈ 0.114 µM) | MIC [11]: ≤ 0.008 µg/mL | MIC [12]: 0.5 µg/mL (≈ 0.908 µM) | MIC [13]: 0.5 µg/mL (≈ 0.908 µM) | MIC [14]: ≤ 0.008 µg/mL | MIC [15]: 16 µg/mL (≈ 29.1 µM) | MIC [16]: 1 µg/mL (≈ 1.82 µM) | MIC [17]: 8 µg/mL (≈ 14.5 µM) | MIC [18]: 0.25 µg/mL (≈ 0.454 µM) | MIC [19]: 0.25 µg/mL (≈ 0.454 µM) | MIC [20]: 0.031 µg/mL (≈ 0.0563 µM) | MIC [21]: 0.25 µg/mL (≈ 0.454 µM) | MIC [22]: 0.25 µg/mL (≈ 0.454 µM) | MIC [23]: 0.5 µg/mL (≈ 0.908 µM) | MIC [24]: 0.13 µg/mL (≈ 0.236 µM) | MIC [25]: 64 µg/mL (≈ 116 µM)
